System: 188146-221-R-J1-PDC complex spheroid viability
Assay: Anticancer human tumor 188146-221-R-J1-PDC patient-derived colon adenocarcinoma cell line growth inhibition [POLQ]
Settings: for IC50: curve of first compound; for viability, T/C: stronger effect = lower value
Procedure, shortened: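 Three-cell-type spheroids modelling solid tumor plus stroma served as the readout system; POL inhibitors were tested individually and in combination, concentration ranges set by clinical Cmax where known.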
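Note: spheroids exposed to compounds for seven days.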
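Throughout, for viability, T/C: 100% = DMSO vehicle control viability.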

**Q.** For `CC(=O)O[C@H]1C(=O)[C@@]2(C)[C@H]([C@H](OC(=O)c3ccccc3)[C@]3(O)C[C@H](OC(=O)[C@H](O)[C@@H](NC(=O)c4ccccc4)c4ccccc4)C(C)=C1C3(C)C)[C@]1(OC(C)=O)CO[C@@H]1C[C@@H]2O` + COC1C(OC(N)=O)C(O)C(Oc2ccc3c(O)c(NC(=O)c4ccc(O)c(CC=C(C)C)c4)c(=O)oc3c2C)OC1(C)C, which IC50 (second compound 0.0316 µM) is on record?
**A.** 16.4 nM

**Q.** What about the IC50 (second compound 0.1 µM) of the same compound?
**A.** 17.2 nM

**Q.** And the IC50 (second compound 0.316 µM)?
**A.** 16.8 nM

**Q.** And the IC50 (second compound 1 µM)?
**A.** 14.4 nM

**Q.** What about the IC50 (second compound 3.16 µM) of the same compound?
**A.** 17.2 nM

**Q.** What about the IC50 (second compound 10 µM) of the same compound?
**A.** 16 nM

**Q.** What about the viability, T/C (second compound 0.0316 µM, first compound 0.00949 µM) of the same compound?
**A.** 76%

**Q.** And the viability, T/C (second compound 0.0316 µM, first compound 0.03 µM)?
**A.** 21%

**Q.** And the viability, T/C (second compound 0.0316 µM, first compound 0.0949 µM)?
**A.** 10.8%

**Q.** And the viability, T/C (second compound 0.0316 µM, first compound 0.3 µM)?
**A.** 10.2%

**Q.** What about the viability, T/C (second compound 0.0316 µM, first compound 0.949 µM) of the same compound?
**A.** 10.4%

**Q.** And the viability, T/C (second compound 0.0316 µM, first compound 3 µM)?
**A.** 9.91%

**Q.** And the viability, T/C (second compound 0.1 µM, first compound 0.00949 µM)?
**A.** 80.1%

**Q.** And the viability, T/C (second compound 0.1 µM, first compound 0.03 µM)?
**A.** 21.7%

**Q.** What about the viability, T/C (second compound 0.1 µM, first compound 0.0949 µM) of the same compound?
**A.** 12.2%

**Q.** And the viability, T/C (second compound 0.1 µM, first compound 0.3 µM)?
**A.** 9.8%

**Q.** And the viability, T/C (second compound 0.1 µM, first compound 0.949 µM)?
**A.** 8.82%

**Q.** And the viability, T/C (second compound 0.1 µM, first compound 3 µM)?
**A.** 9.35%

**Q.** And the viability, T/C (second compound 0.316 µM, first compound 0.00949 µM)?
**A.** 75.9%

**Q.** What about the viability, T/C (second compound 0.316 µM, first compound 0.03 µM) of the same compound?
**A.** 24.3%

**Q.** And the viability, T/C (second compound 0.316 µM, first compound 0.0949 µM)?
**A.** 9.19%

**Q.** What about the viability, T/C (second compound 0.316 µM, first compound 0.3 µM) of the same compound?
**A.** 11.9%

**Q.** What about the viability, T/C (second compound 0.316 µM, first compound 0.949 µM) of the same compound?
**A.** 9.74%

**Q.** And the viability, T/C (second compound 0.316 µM, first compound 3 µM)?
**A.** 11.2%

**Q.** What about the viability, T/C (second compound 1 µM, first compound 0.00949 µM) of the same compound?
**A.** 66.3%

**Q.** And the viability, T/C (second compound 1 µM, first compound 0.03 µM)?
**A.** 21.7%

**Q.** What about the viability, T/C (second compound 1 µM, first compound 0.0949 µM) of the same compound?
**A.** 10.2%

**Q.** And the viability, T/C (second compound 1 µM, first compound 0.3 µM)?
**A.** 10%

**Q.** What about the viability, T/C (second compound 1 µM, first compound 0.949 µM) of the same compound?
**A.** 10.6%

**Q.** And the viability, T/C (second compound 1 µM, first compound 3 µM)?
**A.** 9.98%

**Q.** And the viability, T/C (second compound 3.16 µM, first compound 0.00949 µM)?
**A.** 84%

**Q.** What about the viability, T/C (second compound 3.16 µM, first compound 0.03 µM) of the same compound?
**A.** 18.2%

**Q.** And the viability, T/C (second compound 3.16 µM, first compound 0.0949 µM)?
**A.** 12.6%

**Q.** And the viability, T/C (second compound 3.16 µM, first compound 0.3 µM)?
**A.** 8.24%

**Q.** What about the viability, T/C (second compound 3.16 µM, first compound 0.949 µM) of the same compound?
**A.** 11.4%

**Q.** What about the viability, T/C (second compound 3.16 µM, first compound 3 µM) of the same compound?
**A.** 10.8%

**Q.** And the viability, T/C (second compound 10 µM, first compound 0.00949 µM)?
**A.** 75.6%

**Q.** And the viability, T/C (second compound 10 µM, first compound 0.03 µM)?
**A.** 19.2%

**Q.** And the viability, T/C (second compound 10 µM, first compound 0.0949 µM)?
**A.** 11.2%

**Q.** And the viability, T/C (second compound 10 µM, first compound 0.3 µM)?
**A.** 9.41%

**Q.** And the viability, T/C (second compound 10 µM, first compound 0.949 µM)?
**A.** 12.8%

**Q.** And the viability, T/C (second compound 10 µM, first compound 3 µM)?
**A.** 11.8%
